Assay results as given in patent US20170334899A1, “AMINO-SUBSTITUTED ISOTHIAZOLES” (Bayer Pharma Aktiengesellschaft, priority 2014, published 2017).
pIC50: −log10 of the molar value. Where two headings read alike, the source gives them in different places.

What was measured:
[1] = system: human cervical tumor cell line HeLa (ATCC CCL-2); assay: SAC-Formation - Paclitaxel-Induced Assay; assay type: cell-based; settings: Homo sapiens, HeLa, 24 h, HeLa cells, paclitaxel 0.05 μM, test range 0.005 μM-20 μM, read-out: IC50 [mol/l] SAC-Formation - Paclitaxel-Induced Assay
Procedure, shortened: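 HeLa cells incubated overnight at 37° C, then given paclitaxel (0.05 μM final) plus test compound (0.005–20 μM, 0.5% DMSO) together for 24 h at 37° C. Fixed cells stained for phospho-histone H3 Ser10 (mitotic cells) and Hoechst 33342 (cell count); imaging-derived mitotic index fitted by four-parameter Hill equation.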

HeLa = assay: Proliferation assay (crystal violet), HeLa; assay type: cell-based; settings: HeLa cells, 4 days incubation, crystal violet staining, read-out: IC50 inhibition of proliferation, HeLa
Procedure, shortened: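 Seed 1000–5000 cells/well, 10% FCS; 24 h later replace medium and add compound (0.001–10 μM, 0.5% DMSO); incubate 4 d; glutaraldehyde fix, 0.1% crystal violet pH 3.0, elute with 10% acetic acid; A595; 4-parameter IC50.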

Compound	pIC50 [1]	pIC50 (HeLa; Homo sapiens, HeLa, 96 h)	pIC50 (HeLa)
Cc1nsc(Nc2cnc(C(F)(F)F)cn2)c1C(=O)Nc1ccc(OCC2CCN(CCC(F)(F)F)CC2(F)F)nc1 (stereo not shown) [Example 402, N-(6-{[3,3-difluoro-1-(3,3,3-trifluoropropyl)piperidin-4-yl]methoxy}pyridin-3-yl)-3-methyl-5-{[5-(trifluoromethyl)pyrazin-2-yl]amino}-1,2-thiazole-4-carboxamide]	5.47	6.47	–
CCN1CC[C@H](Oc2ccc(NC(=O)c3c(C)nsc3Nc3cnc(C(F)(F)F)cn3)cn2)[C@H](F)C1 [Example 424, N-(6-{[(3R,4S)-1-Ethyl-3-fluoropiperidin-4-yl]oxy}pyridin-3-yl)-3-methyl-5-{[5-(trifluoromethyl)pyrazin-2-yl]amino}-1,2-thiazole-4-carboxamide]	6.49	6.28	–
Cc1nsc(Nc2cnccn2)c1C(=O)Nc1ccc(OC2CCCN(C(=O)OC(C)(C)C)C2)nc1 (stereo not shown) [Example 41, tert-Butyl 3-{[5-({[3-methyl-5-(pyrazin-2-ylamino)-1,2-thiazol-4-yl]carbonyl}amino)-pyridin-2-yl]oxy}piperidine-1-carboxylate]	5.74	5.00	–
Cc1nsc(Nc2cc(C#N)ccn2)c1C(=O)Nc1ccc(OCCCN)nc1 [Example 44, N-[6-(3-Aminopropoxy)pyridin-3-yl]-5-[(4-cyanopyridin-2-yl)amino]-3-methyl-1,2-thiazole-4-carboxamide]	4.70	5.00	–
Cc1nsc(Nc2cnc3ccccc3n2)c1C(=O)Nc1cccc(C(=O)NC(C)(C)C)c1 [Example 53, N-[3-(tert-Butylcarbamoyl)-phenyl]-3-methyl-5-(quinoxalin-2-ylamino)-1,2-thiazole-4-carboxamide]	5.96	5.57	–
Cc1nsc(Nc2cnc(C(F)(F)F)cn2)c1C(=O)Nc1ccc(F)c(O[C@H]2CCN(CC(F)F)C2)c1 [Example 417, N-(3-{[(3S)-1-(2,2-Difluoroethyl)pyrrolidin-3-yl]oxy}-4-fluorophenyl)-3-methyl-5-{[5-(trifluoromethyl)pyrazin-2-yl]amino}-1,2-thiazole-4-carboxamide]	7.49	6.39	–
Cc1nsc(Nc2cnc3ccccc3n2)c1C(=O)Nc1cccc(C(=O)NCC(=O)OC(C)(C)C)c1 [Example 54, tert-Butyl N-[3-({[3-methyl-5-(quinoxalin-2-ylamino)-1,2-thiazol-4-yl]carbonyl}amino)-benzoyl]glycinate]	5.89	5.00	–
Cc1nsc(Nc2cnc(C(F)(F)F)cn2)c1C(=O)Nc1ccc(F)c(OC[C@H]2CCCN(CCC(F)(F)F)C2)c1 [Example 418, N-(4-Fluoro-3-{[(3S)-1-(3,3,3-trifluoropropyl)piperidin-3-yl]methoxy}phenyl)-3-methyl-5-{[5-(trifluoromethyl)pyrazin-2-yl]amino}-1,2-thiazole-4-carboxamide]	6.85	5.92	–
Cc1nsc(Nc2nc3c(C(F)(F)F)cccc3s2)c1C(=O)Nc1ccc(OCCO)c(F)c1 [Example 4, N-[3-Fluoro-4-(2-hydroxyethoxy)phenyl]-3-methyl-5-{[4-(trifluoromethyl)-1,3-benzothiazol-2-yl]amino}-1,2-thiazole-4-carboxamide]	6.01	5.74	–
Cc1nsc(Nc2cnc(C(F)(F)F)cn2)c1C(=O)Nc1ccc(OC[C@H]2CCN(CC(F)(F)F)C2)nc1 [Example 404, 3-Methyl-N-(6-{[(3S)-1-(2,2,2-trifluoroethyl)pyrrolidin-3-yl]methoxy}pyridin-3-yl)-5-{[5-(trifluoromethyl)pyrazin-2-yl]amino}-1,2-thiazole-4-carboxamide]	7.70	6.60	–
Cc1nsc(Nc2cnc3ccccc3n2)c1C(=O)Nc1cccc(C(=O)O)c1 [Example 51, 3-({[3-Methyl-5-(quinoxalin-2-ylamino)-1,2-thiazol-4-yl]carbonyl}amino)benzoic acid]	4.70	5.00	–
COCCOc1ccc(NC(=O)c2c(C)nsc2Nc2nc3c(C(F)(F)F)cccc3s2)cc1F [Example 1, N-[3-Fluoro-4-(2-methoxyethoxy)phenyl]-3-methyl-5-{[4-(trifluoromethyl)-1,3-benzothiazol-2-yl]amino}-1,2-thiazole-4-carboxamide]	7.03	6.24	–
Cc1nsc(Nc2cc(C#N)ccn2)c1C(=O)Nc1ccc(OCCCNC(=O)OC(C)(C)C)nc1 [Example 43, tert-Butyl [3-({5-[({5-[(4-cyanopyridin-2-yl)amino]-3-methyl-1,2-thiazol-4-yl}-carbonyl)amino]pyridin-2-yl}oxy)propyl]carbamate]	6.52	5.00	–
Cc1nsc(Nc2cnc(C(F)(F)F)cn2)c1C(=O)Nc1ccc(CCC2CCN(CCC(F)(F)F)CC2)nc1 [Example 420, 3-Methyl-5-{[5-(trifluoromethyl)pyrazin-2-yl]amino}-N-(6-{2-[1-(3,3,3-trifluoro-propyl)piperidin-4-yl]ethyl}pyridin-3-yl)-1,2-thiazole-4-carboxamide]	6.62	6.20	–
Cc1nsc(Nc2cnc(C(F)(F)F)cn2)c1C(=O)Nc1ccc(OCCCNC(=O)C(F)(F)F)nc1 [Example 428, 3-Methyl-N-(6-{3-[(trifluoroacetyl)amino]propoxy}pyridin-3-yl)-5-{[5-(trifluoro-methyl)pyrazin-2-yl]amino}-1,2-thiazole-4-carboxamide]	6.21	5.89	–
COC(=O)c1cccc(NC(=O)c2c(C)nsc2Nc2cnc3ccccc3n2)c1 [Example 50, Methyl 3-({[3-methyl-5-(quinoxalin-2-ylamino)-1,2-thiazol-4-yl]carbonyl}amino)-benzoate]	6.21	5.72	–
Cc1nsc(Nc2ccc(C#N)cn2)c1C(=O)Nc1ccc(OC2CCCN(C(=O)OC(C)(C)C)C2)nc1 (stereo not shown) [Example 36, tert-Butyl 3-({5-[({5-[(5-cyanopyridin-2-yl)amino]-3-methyl-1,2-thiazol-4-yl}-carbonyl)amino]pyridin-2-yl}oxy)piperidine-1-carboxylate]	6.23	5.96	–
Cc1nsc(Nc2cnccn2)c1C(=O)Nc1ccc(OCCCN)nc1 [Example 48, N-[6-(3-Aminopropoxy)pyridin-3-yl]-3-methyl-5-(pyrazin-2-ylamino)-1,2-thiazole-4-carboxamide]	5.18	5.00	–
Cc1nsc(Nc2nc3c(C(F)(F)F)cccc3s2)c1C(=O)Nc1ccc(OCCO)nc1 [Example 2, N-[6-(2-Hydroxyethoxy)pyridin-3-yl]-3-methyl-5-{[4-(trifluoromethyl)-1,3-benzo-thiazol-2-yl]amino}-1,2-thiazole-4-carboxamide]	6.34	5.31	–
Cc1nsc(Nc2cnc3ccccc3n2)c1C(=O)Nc1ccc(OCCCNC(=O)OC(C)(C)C)nc1 [Example 42, tert-Butyl (3-{[5-({[3-methyl-5-(quinoxalin-2-ylamino)-1,2-thiazol-4-yl]carbonyl}-amino)pyridin-2-yl]oxy}propyl)carbamate]	5.77	5.64	–
Cc1nsc(Nc2cnc(C(F)(F)F)cn2)c1C(=O)Nc1ccc(F)c(O[C@H]2CCN(CCC(F)(F)F)C2)c1 [Example 415, N-(4-Fluoro-3-{[(3S)-1-(3,3,3-trifluoropropyl)pyrrolidin-3-yl]oxy}phenyl)-3-methyl-5-{[5-(trifluoromethyl)pyrazin-2-yl]amino}-1,2-thiazole-4-carboxamide]	7.28	6.46	–
Cc1nsc(Nc2ccc(C#N)cn2)c1C(=O)Nc1ccc(OC2CCCN(CC(F)(F)F)C2)nc1 (stereo not shown) [Example 40, 5-[(5-Cyanopyridin-2-yl)amino]-3-methyl-N-(6-{[1-(2,2,2-trifluoroethyl)piperidin-3-yl]oxy}pyridin-3-yl)-1,2-thiazole-4-carboxamide]	6.41	6.27	–
CC(=O)Nc1ccc(NC(=O)c2c(C)nsc2Nc2ccc(C#N)cn2)cn1 [Example 435, N-(6-Acetamidopyridin-3-yl)-5-[(5-cyanopyridin-2-yl)amino]-3-methyl-1,2-thiazole-4-carboxamide]	4.70	< 5.00	–
Cc1nsc(Nc2cnc3ccccc3n2)c1C(=O)Nc1cccc(C(=O)OC(C)(C)C)c1 [Example 49, tert-Butyl 3-({[3-methyl-5-(quinoxalin-2-ylamino)-1,2-thiazol-4-yl]carbonyl}amino)-benzoate]	6.39	6.05	–
Cc1nsc(Nc2ccc(C#N)cn2)c1C(=O)Nc1ccc(OC[C@H]2CCN(CC(F)(F)F)C2)nc1 [Example 405, 5-[(5-Cyanopyridin-2-yl)amino]-3-methyl-N-(6-{[(35)-1-(2,2,2-trifluoroethyl)pyrrolidin-3-yl]methoxy}pyridin-3-yl)-1,2-thiazole-4-carboxamide]	–	6.36	–
Cc1nsc(Nc2cnc(C(F)(F)F)cn2)c1C(=O)Nc1ccc(F)c(OCC2CCN(CC(F)(F)F)C2)c1 (stereo not shown) [Example 318, N-(4-fluoro-3-{[1-(2,2,2-trifluoroethyl)pyrrolidin-3-yl]methoxy}phenyl)-3-methyl-5-{[5-(trifluoromethyl)pyrazin-2-yl]amino}-1,2-thiazole-4-carboxamide]	–	6.66	6.39
Cc1nsc(Nc2cnc(C(F)(F)F)cn2)c1C(=O)Nc1ccc(OCC2CCN(CC(F)F)CC2(F)F)nc1 (stereo not shown) [Example 401, N-(6-{[1-(2,2-difluoroethyl)-3,3-difluoropiperidin-4-yl]methoxy}pyridin-3-yl)-3-methyl-5-{[5-(trifluoromethyl)pyrazin-2-yl]amino}-1,2-thiazole-4-carboxamide]	–	6.37	–
